Experimental data published in patent US6602878B1, “Acylquanidine derivatives, method for preparing same, application as medicines and pharmaceutical compositions containing them” (Aventis Pharma S.A., priority 1998, dated 2003).

Biological target: human αvβ3 receptor (Homo sapiens, UniProt P05106+P06756)
Assay: Kistrin/Vitronectin Receptor (αvβ3) ELISA Test
Type: binding
Details: kistrin-coated plates, 3 hours at ambient temperature, OD 450 nm, read-out: K/VnR IC50
Method: Kistrin/Vitronectin Receptor (αvβ3) ELISA Test
96-well MaxiSorp plates are coated overnight at […] with 100 μl of Kistrin at 1 μg/ml (dilution in coating buffer: 0.05 M (carbonate)/NaOH pH 9.6. The next day, the wells are emptied and the ligands (kistrin) are then fixed (fixation buffers: PBS containing 0.5% BSA (pH=7.4)) for 1 hour at ambient temperature under gentle agitation of 125 rpm. The wells are washed six times (washing buffer: PBS containing 0.05% Tween 20 (pH 7.7) then the following is added per well and in this order:
40 μl of incubation buffer
10 μl of the dilution of the product to be tested (the products are diluted in a 50:50 DMSO/water mixture)
50 μl of human αvβ3 receptor (cf Pytel et al. Methods Enzymol. (1987) 144 (Dilution in incubation buffer, adapted according to the batch of receptor and according to the ligand). The ligand, the αvβ3 receptor and the products to be studied are incubated for 3 hours at ambient temperature with gentle agitation of 125 rpm.
The wells are again washed six times, then incubated for 2 hours at ambient temperature with gentle agitation of 125 rpm, in the presence of 100 μl of anti-receptor antibody coupled to a peroxidase (The 4B12-HRP antibody is diluted in incubation buffer (50 mM TRIS pH 7.4; 0.5% BSA; 0.05% Tween 20; 1 mM MnCl2; 50 μM CaCl2; 50 μM MgCl2; 100 mM NaCl). The dilution is to be adapted according to the batch of receptor.
The wells are then washed six times before measurement of the ligand-receptor bond is carried out using a peroxidase developer kit (TBM Microwell Peroxidase Substrate System Kirkegaard; Ref cat 50-76-00).
This kit contains a flask A of substrate (3,3′,5,5′-tetramethylebenzidine at 0.4 g/l) and a flask B (H2O2 to 0.02% in Citrate/Citric acid). Extemporaneously, one volume of A is mixed with one volume of B, then the reaction mixture is distributed at a rate of 100 μl/wells.
The enzymatic reaction develops between 6 to 10 minutes for Kistrin/αvβ3 then its development is stopped by the addition of 100 μl of 1 M phosphoric acid. The optical density is determined at 450 nm.
Expression of the Results
The following curve is plotted: the bond percentage as a function of the logarithm of each concentration of the tested product.
For each product IC50 is determined according to the following formula:
B0=Maximum bond in the absence of any product
Bmin=Minimum bond in the presence of the highest

human αvβ3 receptor, sequence (P06756 31-889 limits assumed): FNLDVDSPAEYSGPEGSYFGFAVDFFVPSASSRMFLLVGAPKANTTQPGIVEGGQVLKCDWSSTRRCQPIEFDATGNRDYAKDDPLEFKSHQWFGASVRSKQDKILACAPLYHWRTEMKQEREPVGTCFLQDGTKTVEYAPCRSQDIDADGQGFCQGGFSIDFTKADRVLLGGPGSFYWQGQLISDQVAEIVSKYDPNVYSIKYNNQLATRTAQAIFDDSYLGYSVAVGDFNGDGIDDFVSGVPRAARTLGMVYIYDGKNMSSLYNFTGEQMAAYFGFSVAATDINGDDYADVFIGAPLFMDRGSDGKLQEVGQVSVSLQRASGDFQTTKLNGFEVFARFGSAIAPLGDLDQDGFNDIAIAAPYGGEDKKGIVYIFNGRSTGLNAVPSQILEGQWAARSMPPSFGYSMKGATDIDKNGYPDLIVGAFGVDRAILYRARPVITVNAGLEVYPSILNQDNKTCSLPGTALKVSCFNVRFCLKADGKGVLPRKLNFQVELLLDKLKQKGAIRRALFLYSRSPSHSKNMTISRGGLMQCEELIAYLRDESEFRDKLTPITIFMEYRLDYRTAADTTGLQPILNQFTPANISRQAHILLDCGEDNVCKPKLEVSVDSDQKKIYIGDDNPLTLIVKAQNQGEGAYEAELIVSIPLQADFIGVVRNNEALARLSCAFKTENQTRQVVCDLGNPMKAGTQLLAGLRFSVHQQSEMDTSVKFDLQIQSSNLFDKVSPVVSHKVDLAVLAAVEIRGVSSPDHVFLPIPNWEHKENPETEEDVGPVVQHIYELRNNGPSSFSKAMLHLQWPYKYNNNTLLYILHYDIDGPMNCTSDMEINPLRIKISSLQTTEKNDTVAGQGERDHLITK
human αvβ3 receptor, sequence (P06756 891-1048 partner limits assumed): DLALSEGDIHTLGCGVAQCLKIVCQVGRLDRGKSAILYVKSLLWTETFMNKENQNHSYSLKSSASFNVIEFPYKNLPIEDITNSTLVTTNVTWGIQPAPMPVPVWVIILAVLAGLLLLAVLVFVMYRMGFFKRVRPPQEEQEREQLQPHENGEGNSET
human αvβ3 receptor, sequence (P05106 27-788): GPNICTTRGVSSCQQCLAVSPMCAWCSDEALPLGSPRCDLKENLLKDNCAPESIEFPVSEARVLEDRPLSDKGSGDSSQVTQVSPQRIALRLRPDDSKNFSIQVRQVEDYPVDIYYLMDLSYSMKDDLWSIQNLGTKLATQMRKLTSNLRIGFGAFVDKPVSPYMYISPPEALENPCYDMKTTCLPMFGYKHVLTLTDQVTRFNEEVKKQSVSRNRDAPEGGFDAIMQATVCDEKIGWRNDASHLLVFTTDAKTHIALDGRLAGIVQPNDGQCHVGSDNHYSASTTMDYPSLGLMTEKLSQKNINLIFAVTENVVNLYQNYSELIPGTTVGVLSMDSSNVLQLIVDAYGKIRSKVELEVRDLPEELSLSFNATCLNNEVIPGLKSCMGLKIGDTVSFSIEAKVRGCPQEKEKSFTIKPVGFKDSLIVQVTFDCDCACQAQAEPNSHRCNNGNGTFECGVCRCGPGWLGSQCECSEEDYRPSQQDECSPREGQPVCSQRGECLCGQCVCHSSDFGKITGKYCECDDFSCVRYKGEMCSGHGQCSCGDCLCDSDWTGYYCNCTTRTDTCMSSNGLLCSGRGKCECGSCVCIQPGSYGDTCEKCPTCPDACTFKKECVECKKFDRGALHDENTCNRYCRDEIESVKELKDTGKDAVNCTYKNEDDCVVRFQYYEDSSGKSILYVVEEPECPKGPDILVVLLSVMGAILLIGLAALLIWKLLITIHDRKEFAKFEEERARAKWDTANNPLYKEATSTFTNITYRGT

Compound	IC50
Cc1cc(C)c(S(=O)(=O)NC(CCOc2ccc(CCC(=O)NC3=NCCCN3)cc2)C(=O)O)c(C)c1 (stereo not drawn) [Example 6, O—[4-[3-oxo-3-[(1.4,5,6-tetrahydro-2-pyrimidinyl)amino]-propyl)phenyl]-N-[(2.4,6-trimethylphenyl)sulphonyl]-homoserine]	3.3 nM
O=C(CCc1ccc(OCC[C@H](NC(=O)OCC23CC4CC(CC(C4)C2)C3)C(=O)O)cc1)NC1=NCCCN1 [Example 5, O—[4-[3-oxo-3-[(1.4,5,6-tetrahydro-2-pyrimidinyl)amino]-propyl]phenyl]-N-[[(1-tricyclo[3.3.1.1^3,7]decyl)-methoxy]-carbonyl]-homoserine]	12 nM
O=C(CCc1cccc(OCCCC(NC(=O)OCc2ccccc2)C(=O)O)c1)NC1=NCCCN1 (stereo not drawn) [Example 9, 5-[3-[3-oxo-3-[(1.4,5,6-tetrahydro-2-pyrimidinyl)amino]-propyl]phenoxy]-N-[(phenylmethoxy)carbonyl]-norvaline]	110 nM
O=C(CCc1ccc(OCCC(NS(=O)(=O)c2cccc3ccccc23)C(=O)O)cc1)NC1=NCCCN1 (stereo not drawn) [Example 7, O—[4-[3-oxo-3-[(1.4,5,6-tetrahydro-2-pyrimidinyl)amino]-propyl]phenyl]-N-[(1-naphthalenyl)sulphonyl]-homoserine]	2.5 nM
N=C(N)NC(=O)CCc1ccc(OCCC(NC(=O)OCc2ccccc2)C(=O)O)cc1 (stereo not drawn) [Example 1, O—[4-[3-[(aminoiminomethyl)amino]-3-oxopropyl]phenyl]-N-[(phenylmethoxy)carbonyl]-homoserine]	31 nM

More lines, now with the values ahead:

IC50	Compound
403 nM	CCOC(=O)C(CCOc1ccc(CCC(=O)NC2=NCCCN2)cc1)NC(=O)OCc1ccccc1 (stereo not drawn) [Example 3, Ethyl O—[4-[3-oxo-3-[(1.4,5,6-tetrahydro-2-pyrimidinyl)amino]-propyl]phenyl]-N [(phenylmethoxy)carbonyl]-homoserinate]
7.3 nM	O=C(CCc1ccc(OCC[C@H](NC(=O)OCc2ccccc2)C(=O)O)cc1)NC1=NCCCN1 [Example 2, O—[4-[3-oxo-3-[(1,4,5,6-tetrahydro-2-pyrimidinyl)amino]-propyl]phenyl]-N-[(phenylmethoxy)carbonyl]-homoserine]
5000 nM	CC(C)OC(=O)C(CCOc1ccc(CCC(=O)NC2=NCCCN2)cc1)NC(=O)OCc1ccccc1 (stereo not drawn) [Example 4, (1-Methyl)ethyl O—[4-[3-oxo-3-[(1.4,5,6-tetrahydro-2-pyrimidinyl)amino]-propyl]phenyl]-N-[(phenylmethoxy)carbonyl]-homoserinate]
13 nM	O=C(CCc1cccc(OCCC(NC(=O)OCc2ccccc2)C(=O)O)c1)NC1=NCCCN1 (stereo not drawn) [Example 8, O—[3-[3-oxo-3-[(1,4,5,6-tetrahydro-2-pyrimidinyl)amino]-propyl]phenyl]-N-[(phenylmethoxy)carbonyl]-homoserine;]
